The values below come from patent US20250042850A1, “PHARMACEUTICAL COMPOUNDS AND METHODS OF MAKING AND USING THE SAME” (Athos Therapeutics, Inc., priority 2021, published 2025).

Entries after “also recorded” stand apart in the source; their conditions may differ. Read-outs that look alike come from different tables or passages of the source.

A short description of series [1]: parallel artificial membrane permeation assay (PAMPA). The following applies: 20 μM in PBS/MeOH 90:10, 5 hours at room temperature. (In general: In PAMPA a lipid-coated filter parts donor from acceptor wells.)
Experimental: (§4) The permeability of compounds was evaluated with the parallel artificial membrane permeation assay (PAMPA) as an in vivo model of passive diffusion across a porous filter coated with a lipid/oil/lipid tri-layer artificial membrane. […] Donor solutions of test compound (300 μL, 20 μM in PBS/MeOH 90:10) were added to each well of the donor plate. 200 μL of PBS/MeOH 90:10 was added to each well of the acceptor plate. The acceptor plate was coupled with the donor plate and incubated for 5 hours at room temperature (RT) without agitation. In each plate, test compound was tested in triplicate. At the end of the incubation, test compound concentration in the initial donor solution, acceptor and the donor wells were determined using LC/MS/MS. Permeability of test compound was calculated based on the formula described in “Analytical Method”.
A further series concerns TNF-alpha (TNFA). As to the kind of experiment: Cellular assay, TNF-alpha ELISA in LPS-treated THP-1 cells. The class given is cell-based. The following applies: 1 μM, THP-1 human monocytes, LPS 50 ng/ml, p<0.05. On the procedure:
THP-1 cells were grown to confluence and plated in 6-well plates. PMA (25 nM) was added to the medium and replaced with non-PMA containing medium 24 hrs later. ATH compounds (1 μM) or vehicle (0.1% DMSO) were added and allowed to incubate. After 4 hrs LPS (50 ng/ml) was added without replacement of the medium and supernatants were collected after 4 and 24 hrs. Media were placed on ice for cytokine detection using ELISA (Quantikine, R&D Systems).
VNN1 inhibitors Compound 1 and Compound 2 show suppression of TNF-alpha (TNFA) expression after LPS (lipopolysaccharide) treatment, in THP-1 human monocytes (FIG. 3, p<0.05 for both).
(An ELISA detects its analyte on a solid surface through an enzyme-linked reagent.)

A further series deals with CYP1A2 (Homo sapiens (Human), UniProt P05177). As to the kind of experiment: Cytochrome P450 inhibition assay, substrate cocktail in human liver microsome. The class given is in vitro ADME. The following applies: microsomes. How it is done: (§1) Cytochrome P450 inhibition of a drug is a key factor in determining pharmacokinetic drug-drug interactions. The objective of this study is to evaluate the inhibition potential of VNN1 inhibitors on six (6) major human cytochrome P450 enzymes, including CYP1A2, CYP2C8, CYP2C9, CYP2C19, CYP2D6, and CYP3A4. Inhibition was determined by using a substrate cocktail and analyzing the rate of specific metabolites formation. The cytochrome P450 inhibition assay was developed using a cocktail consisting of six (6) probe substrates ethoxy-resorufin (CYP1A2), rosiglitazone (CYP2C8), diclofenac (CYP2C9), S-mephenytoin (CYP2C19), dextromethorphan (CYP2D6), and midazolam (CYP3A4). The cocktail was incubated in human liver microsome with NADPH regenerating system (NRS) in a shaking bath at 37±2° C. The formation of specific metabolites was monitored by LC/MS/MS. Test compound was added to the cocktail-liver microsome mixture at varying concentrations and its effect on cytochrome P450 activity was determined by analyzing the rate of specific metabolite formation. The percent inhibition was calculated and plotted with reference to the concentration, and the IC50 value for inhibition was derived by fitting the data with a standard sigmoidal dose-response equation via MLA “Quest Graph™ ED50 Calculator.” AAT Bioquest, Inc, 17 Sep. 2020, aatbio.com/tools/ed50-calculator. […]. […].
Sequence of CYP1A2 (P05177 whole entry): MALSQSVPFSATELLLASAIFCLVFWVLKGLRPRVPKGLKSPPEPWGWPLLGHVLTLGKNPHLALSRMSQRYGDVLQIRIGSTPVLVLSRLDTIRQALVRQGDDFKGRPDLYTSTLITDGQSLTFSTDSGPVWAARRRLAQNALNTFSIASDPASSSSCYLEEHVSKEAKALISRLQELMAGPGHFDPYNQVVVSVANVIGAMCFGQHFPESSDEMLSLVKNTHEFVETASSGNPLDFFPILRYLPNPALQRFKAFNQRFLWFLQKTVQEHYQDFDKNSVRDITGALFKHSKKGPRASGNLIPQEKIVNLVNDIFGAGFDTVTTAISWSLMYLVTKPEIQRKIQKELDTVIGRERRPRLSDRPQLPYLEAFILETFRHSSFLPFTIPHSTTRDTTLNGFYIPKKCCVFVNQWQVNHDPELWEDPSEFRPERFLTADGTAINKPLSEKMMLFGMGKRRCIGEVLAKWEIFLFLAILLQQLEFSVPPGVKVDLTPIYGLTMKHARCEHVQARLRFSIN
(§2) Inhibition by Cytochrome P450 is determined using a substrate cocktail and analyzing the rate of specific metabolites formation outlined in Example 21. The following structures were tested: Compound 5, Compound 9, Compound 10, Compound 13, Compound 14, Compound 16, Compound 20, Compound 21, Compound 23, Compound 24, and Compound 25.
Background: Liver microsomes are a subcellular fraction often used to study metabolism.

A further series addresses CYP2C8 (Homo sapiens (Human), UniProt P10632). The description is as above. In kind it is in vitro ADME. The following applies: microsomes. On the procedure: as §1, §2
The target in a further series is CYP3A4 (Homo sapiens (Human), UniProt P08684). Described as above. In kind it is in vitro ADME. The following applies: microsomes. On the procedure:
as §1, §2

Another series has as its target CYP2C19 (Homo sapiens (Human), UniProt P33261). The series is described as above. In kind it is in vitro ADME. The following applies: CYP isozyme 2C19, human liver microsome. On the procedure:
as §1, §2

In another series the target is CYP2D6 (Homo sapiens (Human), UniProt P10635). The description is as above. The conditions noted are these: microsomes. In kind it is in vitro ADME. How it is done:
as §1, §2

The target in another series is CYP2C9 (Homo sapiens (Human), UniProt P11712). The series is described as above. The class given is in vitro ADME. The conditions noted are these: microsomes. On the procedure: as §1, §2
Sequence of CYP2C9 (P11712 whole entry): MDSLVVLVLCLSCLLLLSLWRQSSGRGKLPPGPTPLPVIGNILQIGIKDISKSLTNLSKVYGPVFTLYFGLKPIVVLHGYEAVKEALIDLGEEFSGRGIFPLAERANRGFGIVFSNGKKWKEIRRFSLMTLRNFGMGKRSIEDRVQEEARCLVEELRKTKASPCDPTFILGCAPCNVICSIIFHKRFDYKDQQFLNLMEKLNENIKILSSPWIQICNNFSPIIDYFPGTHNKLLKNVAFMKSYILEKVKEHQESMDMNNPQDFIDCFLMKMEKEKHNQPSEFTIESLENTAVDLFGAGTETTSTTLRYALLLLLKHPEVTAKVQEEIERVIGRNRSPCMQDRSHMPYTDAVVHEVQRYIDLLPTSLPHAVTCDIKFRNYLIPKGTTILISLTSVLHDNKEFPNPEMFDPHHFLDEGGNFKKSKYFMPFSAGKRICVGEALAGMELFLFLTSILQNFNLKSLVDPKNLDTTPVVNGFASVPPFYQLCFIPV
The test system of series [2] is TNF-alpha (TNFA), interleukin 6 (IL6), interleukin 1beta (IL1B), MCP1 and interleukin 8 (IL8). In words: Immune cellular assay, cytokine ELISA multiplex in LPS-treated THP-1 derived macrophages. The class given is cell-based, human. The following applies: 1 μM, THP-1 macrophages, 100 ng/mL LPS for 4 or 24 hours. How it is done:
The anti-inflammatory properties of the four VNN1 inhibitors (Compound 1, Compound 2, Compound 3, and Compound 80) were evaluated in an immune cellular assay targeting key pro-inflammatory cytokines involved in the pathogenesis of multiple autoimmune disease.
Specifically, THP-1 human monocytes were grown in 6-well plates (RPMI 1640+10% FBS+1% P/S). After washing with PBS the THP-1 cells were differentiated into macrophages using 20 nM of phorbol 12-myristate 13-acetate (PMA) for 24 hrs. Compound 1, Compound 2, Compound 3, and Compound 80 (1 μM) were added into the macrophages, which are incubated for 4 hours before the addition of 100 ng/mL lipopolysaccharide (LPS) for either 4 or 24 hours. Next, the macrophages are collected via centrifugation at 1.2K rpm for 5 min and use their media to evaluate cytokine protein levels by using the Bio-rad Cytokine ELISA multiplex assay (cat. No M5000031YV). The supernatants from macrophages treated only with only LPS+PMA are collected and use as negative controls.
The anti-inflammatory properties of the VNN1 inhibitors Compound 5, Compound 9, Compound 10, Compound 13, Compound 14, Compound 16, Compound 20, Compound 21, Compound 26, Compound 23, and Compound 24 are evaluated using the immune cellular assay outlined in Example 6. Suppression of TNF-alpha (TNFA), interleukin 6 (IL6), interleukin 1beta (IL1B), MCP1 and interleukin 8 (IL8) is determined.

The next series deals with Vanin-1 (Homo sapiens (Human), UniProt O95497). As to the kind of experiment: VNN1 inhibitor binding assay (Kd, affinity beads, qPCR readout). The following applies: read-out: Vanin Affinity (nM), Vanin-1 Binding constants. On the procedure:
(§3) Test compounds were prepared as 111X stocks in 100% DMSO. Kd values were determined using an 11-point 3-fold compound dilution series with three DMSO control points. […] The compounds were then diluted directly into the assays such that the final concentration of DMSO was 0.9%. All reactions were performed in polypropylene 384-well plate. Each was a final volume of 0.02 ml. […] The beads were then re-suspended in elution buffer (1×PBS, 0.05% Tween 20, 0.5 μM non-biotinylated affinity ligand) and incubated at room temperature with shaking for 30 minutes. The kinase concentration in the eluates was measured by qPCR.
Binding constants were calculated with a standard dose-response curve using the Hill equation:
The Hill Slope was set to −1. Curves were fitted using a non-linear least square fit with the Levenberg-Marquardt algorithm. The binding data is summarized in Table 1 where A is less than 100 nM, B is 100 to 500 nM, and C is greater than 500 nM.
as §3, with “are” for “were”, “is” for “was”, “reactions” for “reactions were”
Binding constants are calculated with a standard dose-response curve using the Hill equation:
The Hill Slope was set to −1. Curves were fitted using a non-linear least square fit with the Levenberg-Marquardt algorithm. The binding data is summarized in Table 4 where A is less than 100 nM, B is 100 to 500 nM, and C is greater than 500 nM.

For series [3] the following is noted: for Permeability, Pe: PAMPA, 5 h, 20 μM.
Experimental: as §4
For series [4] the following is noted: positive controls, published class; cited from earlier work.
The nature of another series: in vitro. The conditions noted are these: PAMPA.

Sequence of Vanin-1 (O95497 22-513): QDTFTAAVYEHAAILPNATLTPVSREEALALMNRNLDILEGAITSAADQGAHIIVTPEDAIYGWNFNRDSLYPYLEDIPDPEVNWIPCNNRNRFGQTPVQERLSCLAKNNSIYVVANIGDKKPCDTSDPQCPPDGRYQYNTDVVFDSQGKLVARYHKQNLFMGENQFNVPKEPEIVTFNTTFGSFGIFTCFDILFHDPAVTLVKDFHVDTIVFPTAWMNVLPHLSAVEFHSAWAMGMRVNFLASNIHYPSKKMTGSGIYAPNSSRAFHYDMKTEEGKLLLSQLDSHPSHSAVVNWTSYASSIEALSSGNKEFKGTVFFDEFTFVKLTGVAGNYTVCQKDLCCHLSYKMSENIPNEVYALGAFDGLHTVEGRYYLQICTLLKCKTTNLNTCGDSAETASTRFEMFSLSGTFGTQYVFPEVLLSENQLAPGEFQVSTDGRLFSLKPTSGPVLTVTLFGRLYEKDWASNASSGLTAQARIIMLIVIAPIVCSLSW
Sequence of CYP2C19 (P33261 whole entry): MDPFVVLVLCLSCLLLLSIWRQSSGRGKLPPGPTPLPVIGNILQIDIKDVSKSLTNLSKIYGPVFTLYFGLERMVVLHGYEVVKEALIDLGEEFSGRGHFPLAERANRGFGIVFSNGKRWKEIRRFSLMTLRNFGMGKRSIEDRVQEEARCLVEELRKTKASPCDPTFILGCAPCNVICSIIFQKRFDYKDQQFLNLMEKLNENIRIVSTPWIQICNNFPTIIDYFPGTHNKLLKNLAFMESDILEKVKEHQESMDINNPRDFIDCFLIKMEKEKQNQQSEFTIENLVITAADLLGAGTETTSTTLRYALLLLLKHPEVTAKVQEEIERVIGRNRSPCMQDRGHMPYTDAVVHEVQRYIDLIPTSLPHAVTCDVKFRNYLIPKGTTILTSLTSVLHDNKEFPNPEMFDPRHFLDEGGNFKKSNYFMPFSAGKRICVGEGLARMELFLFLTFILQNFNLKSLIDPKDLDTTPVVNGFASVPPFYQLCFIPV
Sequence of CYP2C8 (P10632 whole entry): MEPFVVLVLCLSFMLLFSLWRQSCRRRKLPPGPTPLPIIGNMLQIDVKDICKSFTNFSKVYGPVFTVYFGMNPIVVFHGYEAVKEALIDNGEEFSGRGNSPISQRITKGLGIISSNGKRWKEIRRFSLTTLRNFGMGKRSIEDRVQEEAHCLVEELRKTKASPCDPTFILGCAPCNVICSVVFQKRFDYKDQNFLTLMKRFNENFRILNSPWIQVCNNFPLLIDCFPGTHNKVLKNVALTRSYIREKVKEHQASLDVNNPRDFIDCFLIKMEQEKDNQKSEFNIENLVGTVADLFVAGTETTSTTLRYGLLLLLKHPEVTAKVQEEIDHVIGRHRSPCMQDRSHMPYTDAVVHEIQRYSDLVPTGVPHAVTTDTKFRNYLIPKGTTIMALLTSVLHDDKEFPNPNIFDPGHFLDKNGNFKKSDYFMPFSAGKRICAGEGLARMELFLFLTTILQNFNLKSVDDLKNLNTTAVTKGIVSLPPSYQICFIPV
Sequence of CYP2D6 (P10635 whole entry): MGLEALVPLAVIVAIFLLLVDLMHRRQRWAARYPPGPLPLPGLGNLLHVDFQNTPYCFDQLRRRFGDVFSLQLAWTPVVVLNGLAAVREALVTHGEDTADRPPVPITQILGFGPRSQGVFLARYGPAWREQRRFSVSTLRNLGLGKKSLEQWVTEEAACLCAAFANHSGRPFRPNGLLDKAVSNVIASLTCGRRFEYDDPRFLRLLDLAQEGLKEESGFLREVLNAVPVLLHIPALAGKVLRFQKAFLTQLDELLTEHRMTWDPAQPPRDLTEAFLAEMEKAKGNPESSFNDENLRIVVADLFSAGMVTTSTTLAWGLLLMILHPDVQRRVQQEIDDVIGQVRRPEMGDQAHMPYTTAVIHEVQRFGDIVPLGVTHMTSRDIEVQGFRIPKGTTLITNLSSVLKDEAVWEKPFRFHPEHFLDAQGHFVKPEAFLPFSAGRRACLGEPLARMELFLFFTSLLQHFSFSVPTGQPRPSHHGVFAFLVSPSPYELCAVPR
Sequence of CYP3A4 (P08684 whole entry): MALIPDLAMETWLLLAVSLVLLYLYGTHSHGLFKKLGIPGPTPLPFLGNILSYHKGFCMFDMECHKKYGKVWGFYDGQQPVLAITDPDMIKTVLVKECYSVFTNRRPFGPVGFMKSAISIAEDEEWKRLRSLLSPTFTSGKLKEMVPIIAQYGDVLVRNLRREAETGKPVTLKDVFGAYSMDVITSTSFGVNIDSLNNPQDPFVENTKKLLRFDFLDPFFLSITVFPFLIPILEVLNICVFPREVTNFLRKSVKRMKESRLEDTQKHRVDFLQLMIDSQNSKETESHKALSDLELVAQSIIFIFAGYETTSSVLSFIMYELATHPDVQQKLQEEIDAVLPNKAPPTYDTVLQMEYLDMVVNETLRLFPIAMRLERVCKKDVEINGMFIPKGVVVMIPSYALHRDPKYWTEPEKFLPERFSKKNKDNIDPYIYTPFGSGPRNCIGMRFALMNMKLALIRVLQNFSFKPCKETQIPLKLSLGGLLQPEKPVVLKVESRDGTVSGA
Experimental for in vitro: as §4

Broadly, the IC50 is the point on the concentration scale where inhibition reaches its midpoint. A higher IC50 goes with weaker potency in that assay. On to `O=C(Cc1ccccc1)c1ccn(C(=O)c2ccccc2F)c1` [Compound 1, 1-(1-(2-fluorobenzoyl)-1H-pyrrol-3-yl)-2-phenylethan-1-one], for which, in series [1], the “Permeability, Pe” value came to 23.6 ×10⁻⁶ cm/s. The “suppression of TNF-alpha (TNFA) expression after LPS treatment” value in the series on TNF-alpha (TNFA) is given as “suppression; also recorded: significantly inhibits”. Further, the IC50 at CYP1A2 was above 100 µM; against CYP2C8 it was above 100 µM; against CYP3A4, above 100 µM; on CYP2C19, 50.6 µM; against CYP2D6, above 100 µM; against CYP2C9 it was above 100 µM. In addition, in [2], the “activity against IL6, TNFA and MCP1” value is “highly potent activity”. For the same compound, the Kd at Vanin-1 lay within 100 to 500 nM.

For `O=C(Cc1ccccc1)c1ccn(Cc2c(F)cccc2F)c1` [Compound 2, 1-(1-(2,6-difluorobenzyl)-1H-pyrrol-3-yl)-2-phenylethan-1-one], in the series on TNF-alpha (TNFA), the “suppression of TNF-alpha (TNFA) expression after LPS treatment” value is on record as “suppression; also recorded: significantly inhibits”. Also, the 50% inhibitory concentration (IC50) at CYP1A2 was above 100 µM; against CYP2C8, 65.5 µM; on CYP3A4 it was 73.7 µM; against CYP2C19 it was 15.3 µM; against CYP2D6 it was 27 µM; against CYP2C9 it was 63.4 µM. In addition, in series [3], the “Permeability, Pe” value is 13.6 ×10⁻⁶ cm/s. Moreover, the “activity against IL6, TNFA and MCP1” value in series [2] was “highly potent activity”. Also, the Kd at Vanin-1 is 100 to 500 nM.

Take `O=C(c1ccn(Cc2c(F)cccc2F)c1)C(Cc1c(F)cccc1F)c1ccccc1` (stereo not shown) [Compound 3, 1-(1-(2,6-difluorobenzyl)-1H-pyrrol-3-yl)-3-(2,6-difluorophenyl)-2-phenylpropan-1-one]: the “activity against IL6, TNFA and MCP1” value in series [2] is “highly potent activity”. On Vanin-1, the Kd was above 500 nM.

Regarding `Cn1c(C(=O)Cc2ccccc2)ccc1C(=O)c1ccccc1F` [Compound 22, 1-(5-(2-fluorobenzoyl)-1-methyl-1H-pyrrol-2-yl)-2-phenylethan-1-one], the Kd at Vanin-1 was below 100 nM.

Consider `Cn1c(C(=O)Cc2ccccc2)ccc1C(=O)c1ccccn1` [Compound 25, 1-(1-methyl-5-picolinoyl-1H-pyrrol-2-yl)-2-phenylethan-1-one], for which the Kd at Vanin-1 lay in the range of 100 to 500 nM.

Consider `Cn1c(C(=O)c2ccccc2F)ccc1C(=O)N1CCC2(CCOCC2)C1` [Compound 33, (5-(2-fluorobenzoyl)-1-methyl-1H-pyrrol-2-yl) (8-oxa-2-azaspiro[4.5]decan-2-yl) methanone], for which the Kd on Vanin-1 is below 100 nM.

Consider `Cn1c(C(=O)NC(C)(C)C)ccc1C(=O)c1ccccc1F` [Compound 43, N-(tert-butyl)-5-(2-fluorobenzoyl)-1-methyl-1H-pyrrole-2-carboxamide], for which the Kd at Vanin-1 is below 100 nM.

For `Cn1cc(C(=O)Cc2ccccc2)cc1C(=O)c1ccccc1F` [Compound 46, 1-(5-(2-fluorobenzoyl)-1-methyl-1H-pyrrol-3-yl)-2-phenylethan-1-one], the Kd at Vanin-1 is above 500 nM.

`O=C(Cc1ccccc1)c1c[nH]c(C(=O)c2ccccc2F)c1` [Compound 47, 1-(5-(2-fluorobenzoyl)-1H-pyrrol-3-yl)-2-phenylethan-1-one]: at Vanin-1, the Kd is above 500 nM.

For `Cn1cc(C(=O)c2ccccc2F)cc1C(=O)O` [Compound 76, 4-(2-fluorobenzoyl)-1-methyl-1H-pyrrole-2-carboxylic acid], the Kd at Vanin-1 was above 500 nM.

Consider `Cn1cc(C(=O)c2ccccc2F)cc1C(=O)N1CCC2(CCOCC2)C1` [Compound 77, (4-(2-fluorobenzoyl)-1-methyl-1H-pyrrol-2-yl) (8-oxa-2-azaspiro[4.5]decan-2-yl) methanone], for which, on Vanin-1, the Kd was below 100 nM.

Consider `CC(=O)N(C)[C@@H]1CCN(C(=O)c2cc(C(=O)c3ccccc3F)cn2C)C1` [Compound 78, (R)—N-(1-(4-(2-fluorobenzoyl)-1-methyl-1H-pyrrole-2-carbonyl)pyrrolidin-3-yl)-N-methylacetamide], for which the Kd at Vanin-1 is below 100 nM.

As for `Cn1cccc1C(=O)Cc1ccccc1` [Compound 80, 1-(1-methyl-1H-pyrrol-2-yl)-2-phenylethan-1-one], the “activity against IL6, TNFA and MCP1” value in series [2] is given as “highly potent activity”.

With `O=C(O)Cc1ccccc1Nc1c(Cl)cccc1Cl` [Diclofenac], the “Permeability, Pe” value in series [3] was 10.9 ×10⁻⁶ cm/s. Moreover, the published permeability entry in series [4] is recorded as “high”.

What is called Papp is a coefficient for how fast a substance crosses the barrier. Higher therefore signals ready permeation. As for `CCN1CCCC1CNC(=O)c1cc(S(N)(=O)=O)ccc1OC` (stereo not shown) [Sulpiride], the Papp at 5 h, 20 μM in the series “in vitro” was 0.0392 ×10⁻⁶ cm/s. In series [3], the “PAMPA permeability Classification” value is recorded as “Low/Medium”. Moreover, the published permeability entry in series [4] is “low”.
